Assay results taken from patent US11613546B2, “Substituted pyridotriazine compounds and uses thereof” (Gilead Sciences, Inc., priority 2021, dated 2023).
Where two headings read alike, the source gives them in different places.

What was measured:
Format in all cases: cell-based
HIV-1 (IIIB) = assay: Antiviral assay in MT-4 cells; conditions: HIV-1 IIIB infected MT-4 cells, 5 days, Cell Titer Glo, read-out: MT4 EC50
Method in brief: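 MT-4 cells infected with a 1:250 dilution of HIV-1 IIIB stock were incubated with serially diluted (1:3) compound for 5 days at 37 °C. Viability read by Cell Titer Glo luminescence; EC50 is the concentration giving 50% decrease in signal, from sigmoidal dose-response fits.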

MT-4 cells = assay: Cytotoxicity assay in MT-4 cells
Method in brief: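 Uninfected MT-4 cells were incubated with 1:3 serially diluted compound in RPMI/10% FBS for 5 days at 37° C. Viability was read by CellTiter-Glo luminescence, with 10 μM puromycin as the baseline cytotoxicity control. Values are the concentration giving a 50% decrease in luminescence, from sigmoidal dose-response fits.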

pLai RLuc reporter virus = assay: HIV MT-4 serum shift antiviral reporter assay; conditions: 72 h, Renilla Glo
Method in brief: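 MT-4 cells pre-infected with pLai RLuc virus for 2 h at 37 °C, then incubated 72 h at 37 °C with compound in medium (RPMI, 10% FBS) with or without 50% human serum; Renilla luminescence read. EC50 from sigmoidal fit; serum shift = EC50(HS/CCM)/EC50(CCM).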

[1] = uninfected MT-4 cells, 5 days, Cell Titer Glo, read-out: CC50
[2] = HS/CCM: 50% human serum, read-out: RLUC 50% HS
[3] = cell culture media (RPMI, 10% FBS), read-out: RLUC CCM
[4] = Human immunodeficiency virus 1, IIIB, MT4, 120 h

Compound	EC50 (HIV-1 (IIIB)) [nM]	CC50 (MT-4 cells; [1]) [nM]	EC50 (pLai RLuc reporter virus; [2]) [nM]	EC50 (pLai RLuc reporter virus; [3]) [nM]	EC50 (HIV-1 (IIIB); [4]) [nM]	EC50 (pLai RLuc reporter virus; read-out: RLUC 50% HS, HS/CCM: 50% human serum) [nM]	EC50 (pLai RLuc reporter virus; read-out: RLUC CCM, cell culture media (RPMI, 10% FBS)) [nM]	CC50 (MT-4 cells) [nM]
C[C@@H]1C[C@@H](F)[C@@H](F)CN2CN1n1cc(C(=O)NCc3ccc(F)cc3F)c(=O)c(O)c1C2=O (single isomer, unassigned) [Example C38]	1.5	13600	17	1.1				
O=C(NCc1c(F)cc(F)cc1F)c1cn2c(c(O)c1=O)C(=O)N1Cc3cc(F)ccc3CN2C1 [Example C1, (6R)-10-fluoro-1-hydroxy-2,14-dioxo-N-(2,4,6-trifluorobenzyl)-2,7,12,14-tetrahydro-6,13-methanobenzo[g]pyrido[1,2-b][1,2,5]triazonine-3-carboxamide]	20	10100	30.2	3.18				
O=C(NCc1c(F)cc(F)cc1F)c1cn2c(c(O)c1=O)C(=O)N1Cc3ccc(F)cc3CN2C1 [Example C2, (6R)-9-fluoro-1-hydroxy-2,14-dioxo-N-(2,4,6-trifluorobenzyl)-2,7,12,14-tetrahydro-6,13-methanobenzo[g]pyrido[1,2-b][1,2,5]triazonine-3-carboxamide]	18	12800	47.9	2.86				
O=C(NCc1c(F)cc(F)cc1F)c1cn2c(c(O)c1=O)C(=O)N1Cc3cc(F)ccc3CN2C1 [Example C3, (6S)-10-fluoro-1-hydroxy-2,14-dioxo-N-(2,4,6-trifluorobenzyl)-2,7,12,14-tetrahydro-6,13-methanobenzo[g]pyrido[1,2-b][1,2,5]triazonine-3-carboxamide]	1.7	13400	2.72	0.39				
O=C(NCc1c(F)cc(F)cc1F)c1cn2c(c(O)c1=O)C(=O)N1Cc3ccc(F)cc3CN2C1 [Example C4, (6S)-9-fluoro-1-hydroxy-2,14-dioxo-N-(2,4,6-trifluorobenzyl)-2,7,12,14-tetrahydro-6,13-methanobenzo[g]pyrido[1,2-b][1,2,5]triazonine-3-carboxamide]	1.2	12000	6.08	0.54				
C[C@@H]1C/C=C\[C@H](C)N2CN1n1cc(C(=O)NCc3c(F)cc(F)cc3F)c(=O)c(O)c1C2=O [Example C7, (1S,2R,6S,Z)-9-hydroxy-2,6-dimethyl-8,10-dioxo-N-(2,4,6-trifluorobenzyl)-3,6,8,10-tetrahydro-2H-1,7-methanopyrido[1,2-b][1,2,5]triazecine-11-carboxamide]	2.1	9190	172	0.35				
C[C@@H]1CCC[C@H](C)N2CN1n1cc(C(=O)NCc3c(F)cc(F)cc3F)c(=O)c(O)c1C2=O [Example C8, (1S,2R,6S)-9-hydroxy-2,6-dimethyl-8,10-dioxo-N-(2,4,6-trifluorobenzyl)-3,4,5,6,8,10-hexahydro-2H-1,7-methanopyrido[1,2-b][1,2,5]triazecine-11-carboxamide]		4720			1.8	16.4	0.55	
C[C@@H]1C/C=C\CN2CN1n1cc(C(=O)NCc3ccc(F)cc3F)c(=O)c(O)c1C2=O [Example C10, (1R,2R,Z)—N-(2,4-difluorobenzyl)-9-hydroxy-2-methyl-8,10-dioxo-3,6,8,10-tetrahydro-2H-1,7-methanopyrido[1,2-b][1,2,5]triazecine-11-carboxamide]	1.8	7570	339	0.4				
C[C@@H]1C/C=C\CN2CN1n1cc(C(=O)NCc3ccc(F)cc3F)c(=O)c(O)c1C2=O [Example C11, (1S,2R,Z)—N-(2,4-difluorobenzyl)-9-hydroxy-2-methyl-8,10-dioxo-3,6,8,10-tetrahydro-2H-1,7-methanopyrido[1,2-b][1,2,5]triazecine-11-carboxamide]	1.1	9930	7.32	0.27				
C[C@@H]1CCCCN2CN1n1cc(C(=O)NCc3ccc(F)cc3F)c(=O)c(O)c1C2=O [Example C15, (1R,2R)—N-(2,4-difluorobenzyl)-9-hydroxy-2-methyl-8,10-dioxo-3,4,5,6,8,10-hexahydro-2H-1,7-methanopyrido[1,2-b][1,2,5]triazecine-11-carboxamide]	1.9	9970						
C[C@@H]1/C=C\C[C@@H](C)N2CN1C(=O)c1c(O)c(=O)c(C(=O)NCc3c(F)cc(F)cc3F)cn12 [Example C18, (1S,2R,6R,Z)-9-hydroxy-2,6-dimethyl-8,10-dioxo-N-(2,4,6-trifluorobenzyl)-3,6,8,10-tetrahydro-2H-1,7-methanopyrido[1,2-b][1,2,5]triazecine-11-carboxamide]	4.3							13400
C[C@H]1/C=C\C[C@H](C)N2CN1C(=O)c1c(O)c(=O)c(C(=O)NCc3c(F)cc(F)cc3F)cn12 [Example C20, (1S,2S,6S,Z)-9-hydroxy-2,6-dimethyl-8,10-dioxo-N-(2,4,6-trifluorobenzyl)-3,6,8,10-tetrahydro-2H-1,7-methanopyrido[1,2-b][1,2,5]triazecine-11-carboxamide]	3.5	16600						
C[C@@H]1C(F)=C[C@H](C)N2CN1n1cc(C(=O)NCc3c(F)cc(F)cc3F)c(=O)c(O)c1C2=O [Example C36, (1S,2R,5S)-3-fluoro-8-hydroxy-2,5-dimethyl-7,9-dioxo-N-(2,4,6-trifluorobenzyl)-2,5,7,9-tetrahydro-1,6-methanopyrido[1,2-b][1,2,5]triazonine-10-carboxamide]	1.6	16600						
C[C@H]1C=CC(C)(C)N2CN1C(=O)c1c(O)c(=O)c(C(=O)NCc3c(F)cc(F)cc3F)cn12 [Example C48, (1S,5S)-8-hydroxy-2,2,5-trimethyl-7,9-dioxo-N-(2,4,6-trifluorobenzyl)-2,5,7,9-tetrahydro-1,6-methanopyrido[1,2-b][1,2,5]triazonine-10-carboxamide]	1.5	50000						
C[C@@H]1N2CN([C@@H](C)CC1(F)F)n1cc(C(=O)NCc3ccc(F)cc3F)c(=O)c(O)c1C2=O [Example C59, (1S,2S,5S)—N-(2,4-difluorobenzyl)-4,4-difluoro-8-hydroxy-2,5-dimethyl-7,9-dioxo-2,3,4,5,7,9-hexahydro-1,6-methanopyrido[1,2-b][1,2,5]triazonine-10-carboxamide]		50000			2.8			
C[C@H]1C=C[C@@]2(CCOC2)N2CN1C(=O)c1c(O)c(=O)c(C(=O)NCc3c(F)cc(F)cc3F)cn12 [Example C85, (1′S,3R,5′S)-8′-hydroxy-5′-methyl-7′,9′-dioxo-N-(2,4,6-trifluorobenzyl)-4,5,7′,9′-tetrahydro-2H,5′H-spiro[furan-3,2′-[1,6]methanopyrido[1,2-b][1,2,5]triazonine]-10′-carboxamide]		29000						
C[C@@H]1[C@H]2C[C@H]2[C@H](C)N2CN1n1cc(C(=O)NCc3c(F)cc(F)cc3F)c(=O)c(O)c1C2=O [Example C88, (1aS,2R,3S,11S,11aR)-8-hydroxy-2,11-dimethyl-7,9-dioxo-N-(2,4,6-trifluorobenzyl)-1a,2,7,9,11,11a-hexahydro-1H-3,10-methanocyclopropa[g]pyrido[1,2-b][1,2,5]triazonine-6-carboxamide]	1.1	34300						
(1S,2R,5S)—N-(2,4-difluorobenzyl)-8-hydroxy-2,3,5-trimethyl-7,9-dioxo-2,5,7,9-tetrahydro-1,6-methanopyrido[1,2-b][1,2,5]triazonine-10-carboxamide [Example C62]	1.4							50000
